The record followed here is paper PMC6272861, “In Vitro Inhibition of Human UDP-Glucuronosyl-Transferase (UGT) Isoforms by Astaxanthin, β-Cryptoxanthin, Canthaxanthin, Lutein, and Zeaxanthin: Prediction of in Vivo Dietary Supplement-Drug Interactions” (Molecules, 2016).

Like-named read-outs stand apart in the source and are kept apart here.

One data set addresses T1, UGT1A4 (Homo sapiens, UniProt P22310).
T1 construct: pooled human liver microsomes (final concentration 0.25 mg/mL); tissue Corning Life Sciences; host or cells: pooled human liver microsomes, 150 donors
T1 sequence (P22310 29-534): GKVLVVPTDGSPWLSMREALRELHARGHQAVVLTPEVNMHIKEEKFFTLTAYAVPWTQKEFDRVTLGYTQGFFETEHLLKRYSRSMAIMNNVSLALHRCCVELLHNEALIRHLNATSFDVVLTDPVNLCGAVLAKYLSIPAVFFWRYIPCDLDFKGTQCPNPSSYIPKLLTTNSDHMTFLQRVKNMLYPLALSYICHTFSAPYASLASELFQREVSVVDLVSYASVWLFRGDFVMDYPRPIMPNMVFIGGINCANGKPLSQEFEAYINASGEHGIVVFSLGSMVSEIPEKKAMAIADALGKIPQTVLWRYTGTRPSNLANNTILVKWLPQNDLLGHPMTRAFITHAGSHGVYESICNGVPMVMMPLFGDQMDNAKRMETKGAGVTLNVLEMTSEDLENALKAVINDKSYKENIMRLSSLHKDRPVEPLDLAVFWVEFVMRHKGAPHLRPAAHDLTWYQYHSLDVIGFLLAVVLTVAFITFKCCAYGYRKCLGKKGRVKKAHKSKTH
The data set can be described thus: Inhibition of UGT1A4 (trifluoperazine-N-glucuronidation) in human liver microsomes. Particulars: for IC50: 4 μM trifluoperazine, mean ± SD of triplicate, read-out: IC50 towards UGT1A4; for Residual UGT1A4 enzyme activity: highest tested concentration 50 μM. Format: in vitro ADME.

The next data set concerns the target T2, UGT1A6 (Homo sapiens, UniProt P19224).
T2 construct: pooled human liver microsomes (final concentration 0.25 mg/mL); tissue Corning Life Sciences; host or cells: pooled human liver microsomes, 150 donors
T2 sequence (P19224 27-532): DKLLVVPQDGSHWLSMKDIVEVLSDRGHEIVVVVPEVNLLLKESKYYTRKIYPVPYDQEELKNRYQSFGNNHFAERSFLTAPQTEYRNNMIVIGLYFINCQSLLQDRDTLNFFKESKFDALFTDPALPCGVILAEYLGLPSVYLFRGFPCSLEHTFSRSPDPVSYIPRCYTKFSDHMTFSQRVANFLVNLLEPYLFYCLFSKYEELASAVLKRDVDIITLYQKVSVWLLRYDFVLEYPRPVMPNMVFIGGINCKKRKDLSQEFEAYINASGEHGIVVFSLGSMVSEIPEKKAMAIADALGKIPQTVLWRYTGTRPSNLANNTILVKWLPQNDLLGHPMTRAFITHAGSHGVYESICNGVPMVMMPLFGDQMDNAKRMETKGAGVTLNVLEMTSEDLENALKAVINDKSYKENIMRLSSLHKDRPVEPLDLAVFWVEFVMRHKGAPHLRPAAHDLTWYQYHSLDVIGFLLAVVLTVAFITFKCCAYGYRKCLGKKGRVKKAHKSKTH
Nature of the data set: Inhibition of UGT1A6 (serotonin-O-glucuronidation) in human liver microsomes. The format is in vitro ADME. Particulars: for IC50: 4000 μM serotonin, mean ± SD of triplicate, read-out: IC50 towards UGT1A6; for Residual UGT1A6 enzyme activity: highest tested concentration 50 μM. Background: Liver microsomes are vesicles of endoplasmic reticulum, rich in cytochrome P450 enzymes.

The target in another data set is T3, UGT1A9 (Homo sapiens, UniProt O60656).
T3 sequence (O60656 26-530): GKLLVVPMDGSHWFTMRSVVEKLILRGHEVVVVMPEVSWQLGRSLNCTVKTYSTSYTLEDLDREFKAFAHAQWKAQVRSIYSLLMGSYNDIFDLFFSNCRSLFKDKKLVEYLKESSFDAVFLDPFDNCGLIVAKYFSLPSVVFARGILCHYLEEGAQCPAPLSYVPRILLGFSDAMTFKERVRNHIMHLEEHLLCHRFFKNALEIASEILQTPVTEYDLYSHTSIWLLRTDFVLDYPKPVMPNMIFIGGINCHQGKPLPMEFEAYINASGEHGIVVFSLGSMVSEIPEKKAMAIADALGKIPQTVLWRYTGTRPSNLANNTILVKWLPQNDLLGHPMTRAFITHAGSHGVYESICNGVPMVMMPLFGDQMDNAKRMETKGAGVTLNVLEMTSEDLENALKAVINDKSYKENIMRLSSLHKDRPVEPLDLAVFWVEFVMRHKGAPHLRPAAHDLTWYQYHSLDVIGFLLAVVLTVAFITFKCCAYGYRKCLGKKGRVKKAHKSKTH
The data set can be described thus: Inhibition of UGT1A9 (propofol-O-glucuronidation) in human liver microsomes. Particulars: for Residual UGT1A9 enzyme activity: highest tested concentration 50 μM.

The target of another data set is T4, UGT2B7 (Homo sapiens, UniProt P16662).
T4 sequence (P16662 24-529): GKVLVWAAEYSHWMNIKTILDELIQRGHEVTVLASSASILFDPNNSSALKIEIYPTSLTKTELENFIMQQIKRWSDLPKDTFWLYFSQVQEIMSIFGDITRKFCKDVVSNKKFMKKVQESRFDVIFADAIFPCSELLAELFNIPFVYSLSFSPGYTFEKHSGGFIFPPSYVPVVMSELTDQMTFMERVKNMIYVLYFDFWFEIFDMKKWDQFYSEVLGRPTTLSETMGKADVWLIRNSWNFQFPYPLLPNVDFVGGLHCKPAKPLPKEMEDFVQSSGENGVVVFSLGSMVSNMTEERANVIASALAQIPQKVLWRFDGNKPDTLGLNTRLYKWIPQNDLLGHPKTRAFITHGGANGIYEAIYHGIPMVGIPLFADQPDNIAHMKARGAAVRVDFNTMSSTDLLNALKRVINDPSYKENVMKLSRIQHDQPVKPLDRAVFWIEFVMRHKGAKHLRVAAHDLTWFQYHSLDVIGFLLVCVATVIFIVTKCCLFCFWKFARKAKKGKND
Nature of the data set: Inhibition of UGT2B7 (zidovudine-5′-glucuronidation) in human liver microsomes. Particulars: for Residual UGT2B7 enzyme activity: highest tested concentration 50 μM.

For the next data set, the target named is T5, UGT1A3 (Homo sapiens, UniProt P35503).
T5 sequence (P35503 29-534): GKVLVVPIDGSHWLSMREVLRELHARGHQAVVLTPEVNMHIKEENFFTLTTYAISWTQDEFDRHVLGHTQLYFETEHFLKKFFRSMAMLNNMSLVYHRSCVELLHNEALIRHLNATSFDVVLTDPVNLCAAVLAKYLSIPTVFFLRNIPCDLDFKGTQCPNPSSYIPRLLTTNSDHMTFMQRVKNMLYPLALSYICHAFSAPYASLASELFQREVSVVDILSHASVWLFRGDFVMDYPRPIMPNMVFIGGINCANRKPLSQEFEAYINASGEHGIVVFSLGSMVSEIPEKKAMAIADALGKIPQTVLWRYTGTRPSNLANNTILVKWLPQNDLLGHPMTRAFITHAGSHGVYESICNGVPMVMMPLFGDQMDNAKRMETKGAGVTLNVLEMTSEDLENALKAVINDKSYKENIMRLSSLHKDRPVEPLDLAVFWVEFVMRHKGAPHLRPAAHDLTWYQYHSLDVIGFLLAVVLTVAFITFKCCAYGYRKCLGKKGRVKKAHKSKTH
The data set can be described thus: Inhibition of UGT1A3 (chenodeoxycholic acid 24-acyl-β-D-glucuronidation) in human liver microsomes. Particulars: for Residual UGT1A3 enzyme activity: highest tested concentration 50 μM.

Setting [1] is: read-out: IC50 towards UGT1A9, human liver microsomes, 100 μM propofol, mean ± SD of triplicate.
The mark [2] stands for this setting: read-out: IC50 towards UGT2B7, human liver microsomes, 100 μM zidovudine, mean ± SD of triplicate.
Setting [3] is: read-out: IC50 towards UGT1A3, human liver microsomes, 15 μM chenodeoxycholic acid, mean ± SD of triplicate.

Description for UGT1A3: (§1) The formation activities of β-estradiol-3-glucuronide, chenodeoxycholic acid 24-acyl-β-D-glucuronide, trifluoperazine-N-glucuronide, imipramine-N-β-D-glucuronide, serotonin-O-glucuronide, propofol-O-glucuronide, and zidovudine-5′-glucuronide were determined to probe the activities of UGT1A1, UGT1A3, UGT1A4, UGT1A6, UGT1A9 and UGT2B7, respectively, in human liver microsomes.
(§2) In brief, the 90-µL incubation mixture, including pooled human liver microsomes (final concentration 0.25 mg/mL), 100 mM Tris buffer, 25 µg/mL alamethicin, 5 mM MgCl2, the UGT-selective substrates, and five xanthophylls (0–50 μM), were pre-incubated for 30 min on ice to allow formation of alamethicin pores. Reac2345tions were initiated by the addition of 10 μL of UDPGA (5 mM) to a final reaction volume of 0.1 mL and incubated at 37 °C for 60 min (except 30 min for UGT1A9) in a shaking water bath. After incubation, each reaction was stopped by adding 50 μL of ice-cold acetonitrile containing chlorpropamide (300 ng/mL) or theophylline (30 μg/mL or 300 μg/mL) as an internal standard. The mixtures were then centrifuged (13,000 g for 15 min at 4 °C) and 5-µL aliquots of the supernatants were injected into an LC-MS/MS system. […] All incubations were performed in triplicate, and mean values were used for analysis.
(§3) Chromatographic separations were performed on an Agilent Poroshell 120 EC-C18 column (50 mm × 4.6-mm i.d.; 2.7-μm particle size; Agilent Technologies) to quantify β-estradiol-3-glucuronide (UGT1A1), chenodeoxycholic acid 24-acyl-β-D-glucuronide (UGT1A3), trifluoperazine-N-glucuronide (UGT1A4), propofol-O-glucuronide (UGT1A9), zidovudine-5′-glucuronide (UGT2B7), and 4-methylumbelliferyl glucuronide (UGT2B15); an Agilent Poroshell 120 EC-C18 column (100 × 4.6-mm i.d.; 2.7-mm particle size) was used for quantification of serotonin-O-glucuronide (UGT1A6). The isocratic mobile phase consisted of distilled water (A) and acetonitrile containing 0.1% formic acid (B) at a ratio (v/v) of 10:90 for chenodeoxycholic acid 24-acyl-β-D-glucuronide, 30:70 for trifluoperazine-N-glucuronide and zidovudine-5′-glucuronide, 50:50 for propofol-O-glucuronide and 4-methylumbelliferyl glucuronide, 65:35 for β-estradiol-3-glucuronide, and 90:10 for serotonin-O-glucuronide, at a flow rate of 0.5 mL/min. The total run time was 4.0 min per sample for each metabolite, with the exception of serotonin-O-glucuronide (6.0 min). Peak areas for all of the analytes were automatically integrated using Analyst software (version 1.5.2, Applied Biosystems, Foster City, CA, USA).
(§4) The IC50 values were calculated via nonlinear least-squares regression analysis from plots of the logarithms of inhibitor concentration vs. the residual percentages of activities after inhibition, using WinNonlin (ver. 4.0; Pharsight, Mountain View, CA, USA).
Description for UGT1A4: as §1, §2, §3, §4
Description for UGT1A6: as §1, §2
The IC50 values were calculated via nonlinear least-squares regression analysis from plots of the logarithms of inhibitor concentration vs. the residual percentages of activities after inhibition, using WinNonlin (ver. 4.0; Pharsight, Mountain View, CA, USA). The apparent inhibitory constants (the Ki values) were estimated from fitted curves using the WinNonlin software. Inhibition data were fitted to different models of enzyme inhibition (competitive, non-competitive, uncompetitive, or mixed) using nonlinear least-squares regression analysis (WinNonlin software). The most appropriate inhibition model was selected based on goodness-of-fit criteria determined via visual inspection, by calculating correlations of determination (R^2 values), and using the corrected Akaike′s Information Criterion. For visual inspection, data were presented as Dixon plots.
Description for UGT1A9: as §1, §2, §3, §4
Description for UGT2B7: as §1, §2, §3, §4

The IC50 is the concentration at which inhibition is half-maximal. In the case of `CC1=C[C@H](O)CC(C)(C)[C@H]1/C=C/C(C)=C/C=C/C(C)=C/C=C/C=C(C)/C=C/C=C(C)/C=C/C1=C(C)C[C@@H](O)CC1(C)C` [LU, lutein], the IC50 at UGT1A4 was 28.7 ± 3.79 µM; at UGT1A6 it was > 50 µM; on UGT1A9 it was > 50 µM; on UGT2B7 it was > 50 µM; on UGT1A3, > 50 µM.

With `CC1=C(/C=C/C(C)=C/C=C/C(C)=C/C=C/C=C(C)/C=C/C=C(C)/C=C/C2=C(C)C[C@@H](O)CC2(C)C)C(C)(C)C[C@H](O)C1` [ZE, zeaxanthin], the IC50 on UGT1A4, at UGT1A6, at UGT1A9, against UGT2B7 and against UGT1A3 was > 50 µM each time. In addition, at UGT1A4, the “Residual UGT1A4 enzyme activity” value is recorded as “greater than 80%”. In addition, at UGT1A6, the “Residual UGT1A6 enzyme activity” value is “greater than 80%”. On UGT1A9 (human liver microsomes), the “Residual UGT1A9 enzyme activity” value is given as “greater than 80%”. For the same compound, the “Residual UGT2B7 enzyme activity” value at UGT2B7 (human liver microsomes) is on record as “greater than 80%”. For the same compound, on UGT1A3 (human liver microsomes), the “Residual UGT1A3 enzyme activity” value stood at 64.2%.

Regarding `CC1=C(/C=C/C(C)=C/C=C/C(C)=C/C=C/C=C(C)/C=C/C=C(C)/C=C/C2=C(C)C[C@@H](O)CC2(C)C)C(C)(C)CCC1` [βC, β-cryptoxanthin], the IC50 was 34.9 ± 5.98 µM on UGT1A4; > 50 µM on UGT1A6; > 50 µM on UGT1A9 (setting [1]); > 50 µM at UGT2B7 (setting [2]); 28.3 ± 4.4 µM on UGT1A3 (setting [3]).

`CC1=C(/C=C/C(C)=C/C=C/C(C)=C/C=C/C=C(C)/C=C/C=C(C)/C=C/C2=C(C)C(=O)[C@@H](O)CC2(C)C)C(C)(C)C[C@H](O)C1=O` [AS, astaxanthin]: the IC50 on UGT1A4, at UGT1A6, against UGT1A9, against UGT2B7 and against UGT1A3 was > 50 µM each time. The “Residual UGT1A4 enzyme activity” value at UGT1A4 is reported as “greater than 80%”. Moreover, the “Residual UGT1A6 enzyme activity” value on UGT1A6 is given as “greater than 80%”. Further, the “Residual UGT1A9 enzyme activity” value at UGT1A9 (human liver microsomes) is recorded as “greater than 80%”. Further, the “Residual UGT2B7 enzyme activity” value on UGT2B7 (human liver microsomes) is given as “greater than 80%”. Besides, the “Residual UGT1A3 enzyme activity” value on UGT1A3 (human liver microsomes) is “greater than 80%”.

For the compound `CC1=C(/C=C/C(C)=C/C=C/C(C)=C/C=C/C=C(C)/C=C/C=C(C)/C=C/C2=C(C)C(=O)CCC2(C)C)C(C)(C)CCC1=O` [CA, canthaxanthin], the IC50 was > 50 µM at UGT1A4; > 50 µM on UGT1A6; > 50 µM at UGT1A9 (setting [1]); > 50 µM on UGT2B7 (setting [2]); 41.2 ± 3.14 µM at UGT1A3 (setting [3]).
